Data on 22 compounds can be found in ChEMBL document CHEMBL4680141, “Novel benzimidazole-acrylonitrile hybrids and their derivatives: Design, synthesis and antimycobacterial activity” (2020).

What all share (type): functional
The subject of test [1] is Mycobacterium tuberculosis. As to the kind of experiment: Antimycobacterial activity against Mycobacterium tuberculosis H37Rv assessed as inhibition of bacterial growth incubated for 7 days by MABA assay. As to conditions: 168 h, time 7 day.
Test [2] concerns Mycobacterium tuberculosis. Briefly: Antimycobacterial activity against dormant form of Mycobacterium tuberculosis H37Rv assessed as log fold reduction in bacterial count at 10 ug/ml under nutrient starvation condition after 7 days by MPN assay. To be noted: dose 10 µg/ml; time 7 day.
Test [3] concerns Mycobacterium tuberculosis. Briefly: Antimycobacterial activity against Mycobacterium tuberculosis H37Rv assessed as inhibition of bacterial growth by MABA assay. Background: The colour change of resazurin is a common sign of viable cells or microbes.

Each structure is given as a SMILES string. Values after ≈ are worked out from the molar mass of the structure shown.

In the case of `N#C/C(=C\c1ccc(N2CCN(c3ccc(F)cc3)CC2)cc1)c1nc2ccccc2[nH]1`, the MIC in test [1] was > 25 µg/mL.
In the case of `N#C/C(=C\c1ccc(N2CCN(c3ccccc3)CC2)cc1)c1nc2ccccc2[nH]1`, in test [1], the MIC came out at 6.25 µg/mL (≈ 15.4 µM).
On the same count and under the same terms, as for `COc1ccc(N2CCN(c3ccc(/C=C(\C#N)c4nc5ccccc5[nH]4)cc3)CC2)cc1`, the figure is 6.25 µg/mL (≈ 14.4 µM); as for `N#C/C(=C\c1ccc(N2CCN(Cc3ccc(F)cc3)CC2)cc1)c1nc2ccccc2[nH]1`, 25 µg/mL (≈ 57.1 µM).
Still for that read-out and setting: as for `N#C/C(=C\c1ccc(N2CCN(Cc3ccccc3)CC2)cc1)c1nc2ccccc2[nH]1`, the figure is > 25 µg/mL.
Still for that read-out and setting: as for `Cc1ccc(N2CCN(c3ccc(CC(C#N)c4nc5ccccc5[nH]4)cc3)CC2)cc1` (stereo not given), the figure is > 25 µg/mL.
`N#C/C(=C\c1ccc(N2CCN(c3ccc(Cl)cc3)CC2)cc1)c1nc2ccccc2[nH]1`: the MIC in test [1] is > 25 µg/mL.
Same read-out and setting: as for `CC[C@@H](CO)NCCN[C@@H](CC)CO` [ETHAMBUTOL], the figure is 1.56 µg/mL (≈ 7.64 µM).
Still for that read-out and setting: as for `COc1ccc(N2CCN(c3ccc(CC(C#N)c4nc5ccccc5[nH]4)cc3)CC2)cc1` (stereo not given), the figure is > 25 µg/mL; as for `CN1CCN(c2ccc(/C=C(\C#N)c3nc4ccccc4[nH]3)cc2)CC1`, > 25 µg/mL.
As for `NNC(=O)c1ccncc1` [ISONIAZID], the FC in test [2] is 1.5. In addition, the MIC in test [1] came out at 0.05 µg/mL (≈ 0.365 µM).
The corresponding values for `Cc1ccc(N2CCN(c3ccc(/C=C(\C#N)c4nc5ccccc5[nH]4)cc3)CC2)cc1` are 2.8 and 0.78 µg/mL (≈ 1.86 µM).
For `CC(=O)N1CCN(c2ccc(/C=C(\C#N)c3nc4ccccc4[nH]3)cc2)CC1`, the minimal inhibitory concentration (MIC) in test [1] came to 12.5 µg/mL (≈ 33.7 µM).
Same read-out and setting: as for `N#C/C(=C\c1ccc(N2CCN(c3ccc(Br)cc3)CC2)cc1)c1nc2ccccc2[nH]1`, the figure is > 25 µg/mL.
Consider `N#C/C(=C\c1ccc(N2CCN(C3CCCCC3)CC2)cc1)c1nc2ccccc2[nH]1`, for which, in test [1], the MIC was > 25 µg/mL.
Consider `N#C/C(=C\c1ccc(N2CCN(c3cccc(Cl)c3)CC2)cc1)c1nc2ccccc2[nH]1`, for which, in test [1], the MIC is > 25 µg/mL.
Take `COc1c(N2C[C@@H]3CCCN[C@@H]3C2)c(F)cc2c(=O)c(C(=O)O)cn(C3CC3)c12` [MOXIFLOXACIN]: the FC in test [2] is 1.5.
Consider `CO[C@H]1/C=C/O[C@@]2(C)Oc3c(C)c(O)c4c(O)c(c(/C=N/N5CCN(C)CC5)c(O)c4c3C2=O)NC(=O)/C(C)=C\C=C\[C@H](C)[C@H](O)[C@@H](C)[C@@H](O)[C@@H](C)[C@H](OC(C)=O)[C@@H]1C` [RIFAMPIN], for which, in test [2], the FC turned out to be 1.5. In addition, the MIC in test [1] was found to be 0.1 µg/mL (≈ 0.122 µM).
Take `N#C/C(=C\c1ccccc1)n1nnc2ccccc21`: in test [3], the MIC turned out to be 6.25 µg/mL (≈ 25.4 µM).
With `N#CC(Cc1ccc(N2CCN(c3ccccc3)CC2)cc1)c1nc2ccccc2[nH]1` (stereo not given), in test [1], the MIC was > 25 µg/mL.
The same measure, in the same setting: as for `COc1cccc(N2CCN(c3ccc(/C=C(\C#N)c4nc5ccccc5[nH]4)cc3)CC2)c1`, the figure is > 25 µg/mL.
Take `O=C(O)c1cn(C2CC2)c2cc(N3CCNCC3)c(F)cc2c1=O` [CIPROFLOXACIN]: the FC in test [2] is 1.5.

In general, MIC refers to the least concentration at which growth counts as inhibited.
